Measurements reported in patent publication US10294202B2, “Pyrrolidinones as herbicides” (FMC Corporation, priority 2013, dated 2019).

Columns and labels:
[1] = system: ducksalad; assay: Test B flooded paddy test; type: in vivo, Heteranthera limosa; details: 1000 g ai/ha, Flood; scale of 0 to 100 where 0 is no effect and 100 is complete control
Summary of the method: (§1)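 Plants grown to 2-leaf stage; pots flooded 3 cm above soil and compound applied directly into paddy water, depth held throughout. Visual rating against untreated controls after 13 to 15 days in greenhouse, 0 (no effect) to 100 (complete control).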

[2] = system: oat, wild; assay: Test C pre-/postemergence herbicide test; type: in vivo, Avena fatua; details: Postemergence
Summary of the method: (§2)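 Greenhouse pots; formulation = non-phytotoxic solvent mix + surfactant. PRE onto seeds in loam:sand; POST at 1–4 leaves (2–18 cm) in peat moss/vermiculite medium. Read-out: visual % control vs untreated, day 13–15.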

[3] = system: pigweed; assay: Test A pre-/postemergence herbicide test; type: in vivo, Amaranthus retroflexus
Summary of the method: (§3)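 Greenhouse pot test with pre- and postemergence application of surfactant-containing solvent formulations. Postemergence plants were 2–10 cm, one- to two-leaf stage. Response scored visually after ~10 days, 0 (no effect) to 100 (complete control).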

[4] = system: waterhemp; assay: Test C pre-/postemergence herbicide test; type: in vivo, Amaranthus rudis
Summary of the method: as §2

[5] = system: soybean; assay: Test C pre-/postemergence herbicide test; type: in vivo, Glycine max
Summary of the method: as §2

[6] = system: wheat; assay: Test A pre-/postemergence herbicide test; type: in vivo, Triticum aestivum; details: Postemergence
Summary of the method: as §3

[7] = system: sedge, umbrella; assay: Test B flooded paddy test; type: in vivo, Cyperus difformis; details: 1000 g ai/ha, Flood; scale of 0 to 100 where 0 is no effect and 100 is complete control
Summary of the method: as §1

[8] = system: oilseed rape; assay: Test C pre-/postemergence herbicide test; type: in vivo, Brassica napus
Summary of the method: as §2

[9] = system: wheat (winter wheat); assay: Test C pre-/postemergence herbicide test; type: in vivo, Triticum aestivum
Summary of the method: as §2

[10] = system: ragweed; assay: Test C pre-/postemergence herbicide test; type: in vivo, Ambrosia elatior
Summary of the method: as §2

[11] = system: giant foxtail; assay: Test A pre-/postemergence herbicide test; type: in vivo, Setaria faberii
Summary of the method: as §3

[12] = system: nutsedge, yellow; assay: Test C pre-/postemergence herbicide test; type: in vivo, Cyperus esculentus
Summary of the method: as §2

[13] = 125 g ai/ha, scale 0 to 100 (0 no effect, 100 complete control)
[14] = 250 g ai/ha, scale 0 to 100 (0 no effect, 100 complete control)
[15] = Postemergence, 125 g ai/ha, visual rating on 0 to 100 scale (0 no effect, 100 complete control), approx. 10 days
[16] = Preemergence, 125 g ai/ha, 0 to 100 scale where 0 is no effect and 100 is complete control
[17] = Preemergence, 500 g ai/ha, visual rating on 0 to 100 scale (0 no effect, 100 complete control)
[18] = Postemergence, 31 g ai/ha, scale 0 to 100 (0 no effect, 100 complete control)
[19] = Postemergence, 62 g ai/ha, scale 0 (no effect) to 100 (complete control)
[20] = Postemergence, 125 g ai/ha, scale 0 to 100 (0 no effect, 100 complete control)
[21] = Postemergence, 250 g ai/ha, scale 0 to 100 (0 no effect, 100 complete control)
[22] = Preemergence, 62 g ai/ha, scale 0 to 100 (0 no effect, 100 complete control)
[23] = Preemergence, 125 g ai/ha, scale 0 to 100
[24] = Preemergence, 31 g ai/ha, scale 0 to 100
[25] = Postemergence, 500 g ai/ha, 0 to 100 scale (0 no effect, 100 complete control)
[26] = Postemergence, 125 g ai/ha, 0 to 100 scale, 0 no effect, 100 complete control
[27] = Preemergence, 125 g ai/ha, visual rating on 0 to 100 scale (0 no effect, 100 complete control)
[28] = preemergence, 500 g ai/ha, 0 to 100 scale
[29] = Postemergence, 31 g ai/ha, scale 0 (no effect) to 100 (complete control)
[30] = Postemergence, 62 g ai/ha, scale 0 to 100 (0 no effect, 100 complete control)
[31] = Preemergence, 31 g ai/ha, scale 0 to 100, 0 is no effect and 100 is complete control
[32] = Preemergence, 62 g ai/ha, scale 0 to 100
[33] = Preemergence, 125 g ai/ha, scale 0 to 100 (0 no effect, 100 complete control)

O=C1NCC(c2ccc(F)c(F)c2)C1C(=O)Nc1ccc(F)c(F)c1F (centres unmarked) [Compound 346]
Plant response rating, Ducksalad [1]: 100 | Plant response rating, Oat, Wild ([2]; 31 g ai/ha, scale 0 to 100 (0 no effect, 100 complete control)): 0 | Plant response rating, Oat, Wild ([2]; 62 g ai/ha, scale 0 (no effect) to 100 (complete control)): 0 | Plant response rating, Oat, Wild [2, 13]: 0 | Plant response rating, Oat, Wild [2, 14]: 0 | Plant response rating, Pigweed [3, 15]: 0 | Plant response rating, Pigweed [3, 16]: 20 | Pigweed plant response rating [3, 17]: 30 | Plant response rating, Waterhemp [4, 18]: 0 | Plant response rating, Waterhemp [4, 19]: 0 | Plant response rating, Waterhemp [4, 20]: 15 | Plant response rating, Waterhemp [4, 21]: 40 | Waterhemp plant response rating [4, 22]: 25 | Plant response rating, Waterhemp [4, 23]: 10 | Plant response rating, Waterhemp [4, 24]: 75 | Plant response rating, Soybean [5, 18]: 0 | Plant response rating, Soybean [5, 19]: 5 | Plant response rating, Soybean [5, 20]: 0 | Plant response rating, Soybean [5, 21]: 5 | Soybean plant response rating [5, 22]: 0 | Plant response rating, Soybean [5, 23]: 0 | Plant response rating, Soybean [5, 24]: 0 | Plant response rating, Wheat ([6]; 125 g ai/ha, visual rating on 0 to 100 scale (0 no effect, 100 complete control), approx. 10 days): 0 | Plant response rating, Sedge, Umbrella [7]: 0 | Plant response rating, Oilseed Rape [8, 18]: 0 | Plant response rating, Oilseed Rape [8, 19]: 0 | Plant response rating, Oilseed Rape [8, 20]: 0 | Plant response rating, Oilseed Rape [8, 21]: 0 | Oilseed Rape plant response rating [8, 22]: 0 | Plant response rating, Oilseed Rape [8, 23]: 50 | Plant response rating (scale of 0 to 100), Oilseed Rape ([8]; Preemergence, 250 g ai/ha): 60 | Plant response rating, Oilseed Rape [8, 24]: 0 | Plant response rating, Wheat [9, 18]: 0 | Plant response rating, Wheat [9, 19]: 0 | Plant response rating, Wheat [9, 20]: 0 | Plant response rating, Wheat [9, 21]: 0 | Wheat plant response rating [9, 22]: 0 | Plant response rating, Wheat [9, 23]: 0 | Plant response rating, Wheat [9, 24]: 0 | Plant response rating, Ragweed [10, 18]: 0 | Plant response rating, Ragweed [10, 19]: 0 | Plant response rating, Ragweed [10, 20]: 0 | Plant response rating, Ragweed [10, 21]: 20 | Ragweed plant response rating [10, 22]: 35 | Plant response rating, Ragweed [10, 23]: 35 | Plant response rating, Ragweed [10, 24]: 50 | Plant response rating, Foxtail, Giant [11, 15]: 80 | Plant response rating, Foxtail, Giant [11, 25]: 90 | Plant response rating, Foxtail, Giant [11, 16]: 90 | Foxtail, Giant plant response rating [11, 17]: 90 | Plant response rating, Nutsedge, Yellow [12, 18]: 0 | Plant response rating, Nutsedge, Yellow [12, 19]: 0 | Plant response rating, Nutsedge, Yellow [12, 20]: 0 | Plant response rating, Nutsedge, Yellow [12, 21]: 5 | Nutsedge, Yellow plant response rating [12, 22]: 0 | Plant response rating, Nutsedge, Yellow [12, 23]: 0 | Plant response rating (scale of 0 to 100), Nutsedge, Yellow ([12]; Preemergence, 250 g ai/ha): 0 | Plant response rating, Nutsedge, Yellow [12, 24]: 0

Cc1ccccc1NC(=O)C1C(=O)NCC1c1cccc(C(F)(F)F)c1 (racemic) [Compound 109]
Plant response rating, Ducksalad [1]: 95 | Plant response rating, Oat, Wild ([2]; 31 g ai/ha, scale 0 (no effect) to 100 (complete control)): 0 | Plant response rating, Oat, Wild ([2]; 62 g ai/ha, scale 0 to 100 (0 no effect, 100 complete control)): 0 | Plant response rating, Oat, Wild [2, 13]: 0 | Plant response rating, Oat, Wild [2, 14]: 0 | Plant response rating, Pigweed [3, 26]: 0 | Plant response rating, Pigweed [3, 25]: 0 | Pigweed plant response rating [3, 27]: 0 | Plant response rating, Pigweed [3, 28]: 0 | Plant response rating, Waterhemp [4, 29]: 0 | Plant response rating, Waterhemp [4, 30]: 0 | Plant response rating, Waterhemp [4, 20]: 0 | Plant response rating, Waterhemp [4, 21]: 0 | Waterhemp plant response rating [4, 31]: 0 | Plant response rating, Waterhemp [4, 32]: 50 | Plant response rating, Waterhemp [4, 33]: 0 | Plant response rating (scale of 0 to 100), Waterhemp ([4]; Preemergence, 250 g ai/ha): 20 | Plant response rating, Soybean [5, 29]: 0 | Plant response rating, Soybean [5, 30]: 0 | Plant response rating, Soybean [5, 20]: 5 | Plant response rating, Soybean [5, 21]: 5 | Soybean plant response rating [5, 31]: 100 | Plant response rating, Soybean [5, 32]: 0 | Plant response rating, Soybean [5, 33]: 55 | Plant response rating (scale of 0 to 100), Soybean ([5]; Preemergence, 250 g ai/ha): 0 | Plant response rating, Wheat ([6]; 125 g ai/ha, 0 to 100 scale, 0 no effect, 100 complete control): 20 | Plant response rating, Wheat ([6]; 500 g ai/ha, 0 to 100 scale (0 no effect, 100 complete control)): 60 | Plant response rating, Sedge, Umbrella [7]: 80 | Plant response rating, Oilseed Rape [8, 29]: 0 | Plant response rating, Oilseed Rape [8, 30]: 0 | Plant response rating, Oilseed Rape [8, 20]: 5 | Plant response rating, Oilseed Rape [8, 21]: 5 | Oilseed Rape plant response rating [8, 31]: 0 | Plant response rating, Oilseed Rape [8, 32]: 0 | Plant response rating, Oilseed Rape [8, 33]: 5 | Plant response rating (scale of 0 to 100), Oilseed Rape ([8]; Preemergence, 250 g ai/ha): 40 | Plant response rating, Wheat [9, 29]: 0 | Plant response rating, Wheat [9, 30]: 0 | Plant response rating, Wheat [9, 20]: 0 | Plant response rating, Wheat [9, 21]: 0 | Wheat plant response rating [9, 31]: 0 | Plant response rating, Wheat [9, 32]: 10 | Plant response rating, Wheat [9, 33]: 50 | Plant response rating (scale of 0 to 100), Wheat ([9]; Preemergence, 250 g ai/ha): 85 | Plant response rating, Ragweed [10, 29]: 0 | Plant response rating, Ragweed [10, 30]: 0 | Plant response rating, Ragweed [10, 20]: 0 | Plant response rating, Ragweed [10, 21]: 5 | Ragweed plant response rating [10, 31]: 0 | Plant response rating, Ragweed [10, 32]: 0 | Plant response rating, Ragweed [10, 33]: 0 | Plant response rating (scale of 0 to 100), Ragweed ([10]; Preemergence, 250 g ai/ha): 10 | Plant response rating, Foxtail, Giant [11, 26]: 90 | Plant response rating, Foxtail, Giant [11, 25]: 90 | Foxtail, Giant plant response rating [11, 27]: 90 | Plant response rating, Foxtail, Giant [11, 28]: 90 | Plant response rating, Nutsedge, Yellow [12, 29]: 0 | Plant response rating, Nutsedge, Yellow [12, 30]: 0 | Plant response rating, Nutsedge, Yellow [12, 20]: 0 | Plant response rating, Nutsedge, Yellow [12, 21]: 0 | Nutsedge, Yellow plant response rating [12, 31]: 0 | Plant response rating, Nutsedge, Yellow [12, 32]: 5 | Plant response rating, Nutsedge, Yellow [12, 33]: 0 | Plant response rating (scale of 0 to 100), Nutsedge, Yellow ([12]; Preemergence, 250 g ai/ha): 5
